Values of other authors, collected in patent US20160220512A1, “MODIFIED RELEASE PHARMACEUTICAL FORMULATIONS” (RUBICON RESEARCH PRIVATE LIMITED, priority 2013, published 2016).

Columns and labels:
[1] = memantine and its salts
[2] = tested on: N-methyl d-aspartate (NMDA) receptor; conditions: uncompetitive NMDA receptor antagonist

BCS classification [1]: BCS Class I
permeability [1]: highly permeable
solubility [1]: highly soluble
affinity for the receptor [2]: moderate affinity
Structure (SMILES): CC12CC3CC(C)(C1)CC(N)(C3)C2 [Memantine, 1-amino-3,5-dimethyladamantane]
